The values below come from patent US20240226036A1 (Toragen, Inc., priority 2021, published 2024).

For data set [1], the system named is B16-OVA tumor cells. In words: B16-OVA tumor model in mice. Format: in vivo, mouse. The conditions noted are these: for tumor sizes compared to control groups: 10 mg/kg IP once daily, 7 injections starting on day 10; for survival: with anti-PDL1 immunotherapy, mice harboring B16-OVA tumors.
Data set [2] relates to 4T1 tumor cells. Nature of the data set: 4T1 tumor model in mice. The conditions noted are these: 10 mg/kg IP once daily, 7 injections starting on day 6. Format: in vivo, mouse.
The subject of data set [3] is AT-84-E7 tumors. Format: in vivo, mouse. The conditions noted are these: tumors which do not express E5.
In data set [4] the test system is E5-positive AT-84-E7. In words: Cell surface expression of MHC I (flow cytometry). It counts as cell-based. (In general: A flow cytometer gives signals particle by particle.)
In data set [5] the test system is B16-OVA cells cocultured with B3Z cells. In words: B3Z activation assay. Format: cell-based. As to conditions: 100 μM, 24 hours before B3Z co-culture. How it is done:
B16-OVA cells are seeded into a 96-well plate and treated with 100 μM […], […] or racemic rimantadine for 24 hours, prior to addition of B3Z cells. After 24 hours of co-culture, medium is removed and 100 μl of lysis buffer [0.155 mM chlorophenol red β-D-galactopyranoside (CPRG) (Roche), 0.125% Nonidet P-40 Alternative (EMDCalbiochem), and 9 mM MgCl2 (Sigma) in PBS] are added. After incubation for 4 hours at 37° C., the absorbance at 570 nm is determined on a TECAN infinite M200 microplate reader.

For data set [6], the system named is T cells. In words: Proliferation of T cells. Format: cell-based.
Data set [7] deals with Stathmin. Nature of the data set: RTqPCR gene expression of cell cycle proteins. Format: cell-based. How it is done:
(§1) Total RNA is extracted using TRIzol Reagent (Invitrogen) and reverse transcribed with qScript cDNA Synthesis Kit (Quanta BioSciences, Beverly, MA) according to the manufacturer's instructions. Quantitative PCR analysis is conducted by using KAPA SYBR […] FAST (KAPA Biosystems, Wilmington, MA) on the 7900HT Fast Real-Time PCR System (Applied Biosystems, Foster City, CA).
(In general: Real-time PCR tracks product formation cycle by cycle.)

Data set [8] deals with Tau. Nature of the data set: RTqPCR gene expression of cell cycle proteins. Format: cell-based. How it is done: as §1
Data set [9] relates to cell lines engineered to express HPV16 E5. Nature of the data set: Cell cycle arrest in cell lines engineered to express HPV16 E5. Format: cell-based, murine and human. How it is done:
(§2) Cell cycle progression was analyzed on the basis of BrdU incorporation following […] cell staining with BrdU-APC and 7-AAD using BD Pharmingen BrdU Flow Kit. (BD, Franklin Lakes, NJ) according to the manufacture's protocol. Cells are analyzed using flow cytometry. Cell proliferation is assessed by using MTT [3-(4,5-dimethylthiazol-2-yl)-2,5-diphenyltetrazolium bromide]. First, cells are seeded in 96-well plate and cultured for 2-3 days. Next, culture media is replaced with fresh media containing 0.5 mg/ml of MTT (Sigma) and the plates are incubated for 4 hours at 37° C. Then, purple formazan crystals are dissolved in lysis buffer (4 mM HCl and 0.1% NP-40 in isopropanol) and the absorbance is recorded on a TECAN infiniteM200 microplate reader (Tecan, Mannedorf, Switzerland) at a wavelength of 570 nm with absorbance at 650 nm as reference.

For data set [10], the system named is glutamate, GABA, dopamine receptors. The text has this: Next, a series of SPECT analyses as described in Schramm, N., et al. (2000).
The SPECT analyses comprise of treatment of the mice with radioligands specific to each receptor. For example, [^123I] IBZM has been documented to have a high affinity for the D2/3 dopamine receptor.

The target in data set [11] is M2 channel pore (Influenza A virus, UniProt P06821). The conditions noted are these: one study; other studies found no difference; cited from earlier work.
Chain of M2 channel pore (P06821 whole entry): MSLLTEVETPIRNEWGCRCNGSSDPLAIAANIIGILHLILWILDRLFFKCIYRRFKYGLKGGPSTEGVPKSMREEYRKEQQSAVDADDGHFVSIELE
The test system of data set [12] is CAL-27 cells. Nature of the data set: Example 6 proliferation in vitro (MTT). It counts as cell-based, human. The conditions noted are these: 0-500 μM, 24 or 48 hours. How it is done:
On day 1, CAL-27 cells were seeded in a 96-well plate (2-4×10^3 cells/well, medium 100 μl/well) and left overnight to allow the cells to attach to the plate. On day 2, varying concentrations of rimantadine (0 μM, 100 μM, 250 μM, or 500 μM) were added to the cells and allowed to incubate for 24 hours or 48 hours. On either day 3 or 4, the culture media was aspirated, and 100 μl/well of MTT solution (comprising an MTT concentration of 0.5 mg/ml; formed by dilution of thiazolyl blue tetrazolium bromide solution (SIGMA, Cat #M2128) with stock solution (5 mg/ml in PBS (−20° C.)) was added to the culture media. The cells were incubated in a CO2 incubator at 37° C. for 3 hours, and the MTT solution was aspirated. 100 μl/well of DMSO was then added and the cells were incubated for about 5 minutes. A OD570 nm (Ref 650 nm) was then read. Results of the experiment are shown in FIG. 2.

Data set [13] concerns the target NR1/NR2B ionotropic receptor (Homo sapiens, UniProt Q05586+Q13224). In words: ScreenPatch assay (IonWorks Barracuda electrophysiology) on NR1/NR2B. As to conditions: refers to Table 2. For orientation: Patch clamp records ionic current or voltage across a cell membrane.
Data set [14] deals with NMDA receptors. In words: ScreenPatch two-application protocol, agonist and antagonist format. The conditions noted are these: first application; data not shown. Format: cell-based, human. How it is done:
A two-application protocol was employed.
Agonist Format: The potential agonist effect of the test articles and the positive control antagonist, amantadine, were examined during first application.
To access open channel block type of inhibition, peak and steady state current amplitudes (between 4th and 5th seconds after agonist application) were measured (PCA and SSC respectively).

Data set [15] relates to D2/3 dopamine receptor. As to conditions: documented; cited from earlier work.
Data set [16] relates to CAL-27, CAL-33, and SCC-47 squamous cell carcinoma cell lines. Nature of the data set: BrdU incorporation assays in human head and neck tumor lines. It counts as cell-based. The conditions noted are these: rimantadine alone; CAL-27, CAL-33, SCC-47. How it is done: as §2
For data set [17] the test system is unchanged. In words: Proliferation assays in human head and neck tumor lines. The conditions noted are these: rimantadine alone; CAL-27, CAL-33, SCC-47. Format: cell-based. How it is done: as §2

Like-named read-outs stand apart in the source and are kept apart here.

Chain of NR1/NR2B ionotropic receptor (Q13224 27-1484, other chains not shown): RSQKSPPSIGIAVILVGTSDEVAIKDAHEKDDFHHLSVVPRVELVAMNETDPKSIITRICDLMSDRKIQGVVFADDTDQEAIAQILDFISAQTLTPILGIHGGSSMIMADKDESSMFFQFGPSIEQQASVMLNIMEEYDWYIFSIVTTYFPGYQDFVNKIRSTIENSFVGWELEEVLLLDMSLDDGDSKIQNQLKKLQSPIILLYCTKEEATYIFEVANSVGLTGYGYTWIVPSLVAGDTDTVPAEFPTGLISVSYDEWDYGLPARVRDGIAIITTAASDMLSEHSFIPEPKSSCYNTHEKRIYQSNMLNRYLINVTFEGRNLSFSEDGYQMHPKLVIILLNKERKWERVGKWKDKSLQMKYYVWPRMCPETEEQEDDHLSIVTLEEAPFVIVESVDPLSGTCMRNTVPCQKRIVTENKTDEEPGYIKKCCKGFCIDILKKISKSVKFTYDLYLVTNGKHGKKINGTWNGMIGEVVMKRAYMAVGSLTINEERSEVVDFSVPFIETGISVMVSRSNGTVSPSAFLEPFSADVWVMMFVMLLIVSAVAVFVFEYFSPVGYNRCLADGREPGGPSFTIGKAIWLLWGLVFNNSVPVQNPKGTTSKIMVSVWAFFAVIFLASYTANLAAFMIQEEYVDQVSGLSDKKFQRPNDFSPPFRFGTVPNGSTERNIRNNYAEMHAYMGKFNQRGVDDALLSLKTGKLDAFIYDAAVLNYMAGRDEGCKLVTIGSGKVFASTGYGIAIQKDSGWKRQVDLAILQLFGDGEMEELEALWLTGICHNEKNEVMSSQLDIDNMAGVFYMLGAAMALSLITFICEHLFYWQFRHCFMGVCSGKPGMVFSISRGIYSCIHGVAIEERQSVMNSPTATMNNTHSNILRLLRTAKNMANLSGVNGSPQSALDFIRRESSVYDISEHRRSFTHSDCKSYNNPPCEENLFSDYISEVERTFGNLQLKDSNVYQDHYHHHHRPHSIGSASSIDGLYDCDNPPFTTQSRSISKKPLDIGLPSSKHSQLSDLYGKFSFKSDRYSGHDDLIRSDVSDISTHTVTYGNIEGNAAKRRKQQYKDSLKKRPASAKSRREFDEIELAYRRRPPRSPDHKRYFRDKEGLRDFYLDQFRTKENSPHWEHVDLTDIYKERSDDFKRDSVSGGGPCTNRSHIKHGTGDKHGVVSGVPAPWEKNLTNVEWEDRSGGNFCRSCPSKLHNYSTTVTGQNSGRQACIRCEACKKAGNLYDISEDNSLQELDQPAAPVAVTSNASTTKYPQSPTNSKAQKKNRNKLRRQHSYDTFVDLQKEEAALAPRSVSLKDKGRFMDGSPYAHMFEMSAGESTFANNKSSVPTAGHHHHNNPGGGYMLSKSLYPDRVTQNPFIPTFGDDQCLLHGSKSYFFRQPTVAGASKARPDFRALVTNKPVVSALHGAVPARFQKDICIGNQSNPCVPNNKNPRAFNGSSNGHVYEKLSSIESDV

On to `C[C@@H](N)C12CC3CC(CC(C3)C1)C2` [2-R rimantadine], for which, in [1], the “tumor sizes compared to control groups” value is “statistically significant decreases” and the survival entry is “significant improvement”. The “tumor sizes compared to control groups” value in data set [2] is reported as “statistically significant decreases”. In addition, the anti-tumor effect entry in [3] was “decreased”. The “cell surface expression of MHC I” value in data set [4] is “restored”. In addition, the “increase in recognition of model tumor antigen by B3Z cells” value in [5] is on record as 3 fold. Besides, in data set [6], the “proliferation of T cells” value was “no significant effects”. For the same molecule, the “gene expression of Stathmin” value in data set [7] is “significant decreases”. Further, the “gene expression of Tau” value in data set [8] is “Decreases”. In addition, the cell cycle arrest result in [9] is listed as “induce cell cycle arrest”. The “incidence of central nervous system adverse effects, compared with the other enantiomer” value in data set [10] (Example 4) was “higher incidence”. Moreover, the “affinity for M2 channel pore compared with the S-enantiomer” value in [11] is “greater affinity”.

Consider `C[C@H](N)C12CC3CC(CC(C3)C1)C2` [2-S rimantadine], for which, in data set [1], the “tumor sizes compared to control groups” value is recorded as “statistically significant decreases” and the survival entry is on record as “significant improvement”. In [2], the “tumor sizes compared to control groups” value is listed as “statistically significant decreases”. Also, the anti-tumor effect result in [3] is given as “decreased”. Moreover, in [4], the “cell surface expression of MHC I” value is “restored”. The “increase in recognition of model tumor antigen by B3Z cells” value in [5] is reported as 3 fold. In addition, the “proliferation of T cells” value in data set [6] is “no significant effects”. The “gene expression of Stathmin” value in [7] is given as “significant decreases”. Moreover, the “gene expression of Tau” value in data set [8] is “Decreases”. Besides, the cell cycle arrest result in data set [9] is “induce cell cycle arrest”. Moreover, in data set [10] (Example 4), the “toxicity as a treatment for cancer as compared to 2-R rimantadine” value is reported as “significantly less toxic”. In data set [10] (Example 5), the “incidence of central nervous system adverse effects, compared with the other enantiomer” value is listed as “higher incidence” and the “toxicity as a treatment for cancer as compared to 2-R rimantadine” value is reported as “significantly less toxic”. The “cancer cell proliferation as compared to R-rimantadine or racemic rimantadine” value in data set [12] is on record as “enhanced or equivalent”. Besides, the “inhibition of NR2B subunits as compared to 2-R rimantadine and racemic rimantadine” value in data set [13] is on record as “to a lesser degree”.

`NC12CC3CC(CC(C3)C1)C2` [Amantadine, amantadine]: in data set [14], the “agonist effect: activation of NMDA receptors” value is given as “Neither test articles nor amantadine had produced significant activation”.

For the molecule `CCN1CCC[C@H]1CNC(=O)c1c(OC)ccc([123I])c1O` [[^123I] IBZM], in data set [15], the “affinity for the D2/3 dopamine receptor” value is recorded as “high affinity”.

For `CC(N)C12CC3CC(CC(C3)C1)C2` (stereo not shown) [rimantadine], the cell cycle arrest result in data set [16] is listed as “Significant cell cycle arrest”. The proliferation entry in data set [17] is “decreased”.
